For this assay, the target named is T1, hRSV RNA-dependent RNA polymerase (RdRp) complex with M2-1 (L, P, N, M2-1 minigenome) (Human respiratory syncytial virus A2, UniProt P04545).
T1 construct: pN, pP, pL and pM2-1 plasmids (T7 promoter) in BSR-T7/5 (BHK-21) cells with pM/Luc minigenome; strain printed for the virus only, not for the plasmids; M2-1 tetrameric; with RNA-directed RNA polymerase L; Phosphoprotein; Nucleoprotein
The experiment in a line: hRSV minigenome luciferase reporter assay in transfected BSR-T7/[…] cells. It counts as cell-based. On the technique in general: In a reporter assay the amount or activity of a reporter protein is the signal.

T1 sequence (P04545 whole entry, looked up, one chain of several): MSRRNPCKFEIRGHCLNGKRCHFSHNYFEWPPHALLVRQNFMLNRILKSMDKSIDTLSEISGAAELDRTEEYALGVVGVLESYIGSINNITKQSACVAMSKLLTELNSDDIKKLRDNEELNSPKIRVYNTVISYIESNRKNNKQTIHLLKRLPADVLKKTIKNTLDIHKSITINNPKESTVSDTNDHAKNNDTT

With `CC1=C2C[C@H]3[C@@H](CC=C4C[C@@H](O)CC[C@@]43C)[C@@H]2CC[C@]12O[C@@H]1C[C@H](C)CN[C@H]1[C@H]2C` [cyclopamine], the IC50 (as a rule, the concentration needed to halve the response being measured) is 380 nM.

These data come from paper PMC4872165, “Targeting human respiratory syncytial virus transcription anti-termination factor M2-1 to inhibit in vivo viral replication” (Scientific Reports, 2016).
